Test results from article PMC13429874, “ABHD2 activity is not required for the non-genomic action of progesterone on human sperm” (Human Reproduction (Oxford, England), 2026).

Columns and labels:
ABHD2^L33–E425 [1] = target: T1, ABHD2^L33–E425 (Homo sapiens, UniProt P08910); assay: ABHD2^L33-E425 fluorometric enzymatic activity assay with 7-HCA substrate; type: biochemical
T1 construct: expression for ABHD2 amino acids L33–E425, in which a predicted transmembrane domain (amino acids 1–32) is removed; His6-FLAG (N); made in house; host or cells: E. coli BL21(DE3)-R3-pRARE2
T1 sequence (P08910 33-425): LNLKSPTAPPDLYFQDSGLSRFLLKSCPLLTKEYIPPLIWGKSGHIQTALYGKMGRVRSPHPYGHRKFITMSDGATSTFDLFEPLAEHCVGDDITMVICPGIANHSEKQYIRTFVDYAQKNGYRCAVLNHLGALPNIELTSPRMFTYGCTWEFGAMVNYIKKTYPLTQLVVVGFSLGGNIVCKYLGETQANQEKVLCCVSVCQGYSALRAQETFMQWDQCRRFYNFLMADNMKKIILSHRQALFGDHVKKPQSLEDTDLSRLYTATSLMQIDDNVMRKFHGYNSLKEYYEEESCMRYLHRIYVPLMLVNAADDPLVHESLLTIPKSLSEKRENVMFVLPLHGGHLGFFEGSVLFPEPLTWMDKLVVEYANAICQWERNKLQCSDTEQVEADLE

human ABHD11 = target: T2, human ABHD11 (Homo sapiens, UniProt Q8NFV4); assay: ABHD11 colorimetric assay with p-nitrophenyl butyrate; type: biochemical; details: 10 µM compound, 500 µM p-NPB
T2 construct: residues V34—V315 of human ABHD11; His6-TEV site (N); made in house; host or cells: E. coli
T2 sequence (Q8NFV4 25-306 limits assumed): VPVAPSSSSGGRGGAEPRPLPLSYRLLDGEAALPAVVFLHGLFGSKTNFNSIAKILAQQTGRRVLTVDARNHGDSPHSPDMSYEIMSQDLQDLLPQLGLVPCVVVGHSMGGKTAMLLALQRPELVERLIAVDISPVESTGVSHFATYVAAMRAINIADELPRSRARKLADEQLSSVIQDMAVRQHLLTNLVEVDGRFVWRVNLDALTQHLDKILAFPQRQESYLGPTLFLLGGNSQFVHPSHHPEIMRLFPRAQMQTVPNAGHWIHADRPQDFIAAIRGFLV
Experimental: (§1) Enzymatic activities of ABHD10 and ABHD11 were measured in a colorimetric assay using p-nitrophenyl butyrate (p-NPB) as substrate. Enzymes at 1500 nM ABHD10 and 125 nM ABHD11 in 20 mM HEPES pH 7.5, 150 mM NaCl, and 2% (v/v) DMSO were pre-incubated in 96-well plates with 50 µM test compound for 30 min at 4°C. Plates were then equilibrated at 37°C for 2 min, and reactions were initiated by adding 160 µl of pre-warmed substrate solution (same buffer with 625 µM p-NPB) to a total volume of 200 µl, yielding final assay concentrations of 300 nM ABHD10, 25 nM ABHD11, and 500 µM pNPB. The substrate solution was prepared immediately before addition to the enzyme mixtures. Absorbance at 405 nm was recorded on a SpectraMax iD3 plate reader (Molecular Devices) for 20 min with continuous monitoring at 30 s intervals.

[2] = target: T3, full-length human ABHD2 (ABHD2^FL) (Homo sapiens, UniProt P08910); assay: ABHD2^FL enzymatic activity assay with 7-HCA substrate; type: biochemical
T3 construct: TEV site-eGFP-8xHis (C, cleaved yes); made in house; host or cells: SF9 insect cells (baculovirus)
T3 sequence (P08910 1-425): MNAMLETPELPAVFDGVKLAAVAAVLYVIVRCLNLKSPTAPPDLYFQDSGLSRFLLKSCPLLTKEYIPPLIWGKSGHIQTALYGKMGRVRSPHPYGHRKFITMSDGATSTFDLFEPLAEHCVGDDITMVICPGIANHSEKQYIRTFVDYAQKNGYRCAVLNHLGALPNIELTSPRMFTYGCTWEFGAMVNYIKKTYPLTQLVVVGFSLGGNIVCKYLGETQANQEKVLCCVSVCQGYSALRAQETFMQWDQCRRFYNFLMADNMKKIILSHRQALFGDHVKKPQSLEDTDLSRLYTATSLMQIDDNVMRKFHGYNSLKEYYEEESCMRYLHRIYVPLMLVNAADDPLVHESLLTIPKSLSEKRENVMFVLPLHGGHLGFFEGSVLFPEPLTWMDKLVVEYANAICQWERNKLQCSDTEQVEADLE

human ABHD10 = target: T4, human ABHD10 (Homo sapiens, UniProt Q9NUJ1); assay: ABHD10 colorimetric assay with p-nitrophenyl butyrate; type: biochemical; details: 10 µM compound, 500 µM p-NPB
T4 construct: Constructs encoding amino acids T53—N306 of human ABHD10; His6-TEV site (N); made in house; host or cells: E. coli
T4 sequence (Q9NUJ1 53-306): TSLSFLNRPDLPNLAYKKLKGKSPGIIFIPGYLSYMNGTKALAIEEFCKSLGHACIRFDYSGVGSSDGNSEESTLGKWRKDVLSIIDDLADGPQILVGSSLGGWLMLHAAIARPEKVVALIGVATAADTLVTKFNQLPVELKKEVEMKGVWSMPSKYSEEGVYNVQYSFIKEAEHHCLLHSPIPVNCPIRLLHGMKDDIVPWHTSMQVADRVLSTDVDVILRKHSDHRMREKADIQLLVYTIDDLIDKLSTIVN
Experimental: as §1

ABHD2^L33–E425 [3] = target: T1, ABHD2^L33–E425; assay: Differential scanning fluorimetry (DSF) with purified ABHD2^L33–E425; type: binding
[4] = target: T3, full-length human ABHD2 (ABHD2^FL); assay: ABHD2^FL enzymatic activity assay with resorufin butyrate (RB) substrate; type: biochemical
human sperm = assay: Sperm hyperactivation assay (CASA); type: cell-based; details: 3 µM, 30 min
Experimental: Sperm hyperactivation was assessed in human sperm purified by density gradient centrifugation. Semen samples (n = 7) were allowed to liquefy for 15–30 min at 37°C, and up to 2 ml of liquified semen was layered onto a two-step GM501 gradient system (45%/90%; Gynemed; Sierksdorf, Germany) pre-equilibrated at 37°C. Gradients were centrifuged for 20 min at 400 × g (no break). The 90% pellet was collected, washed in SpermActive medium (Gynemed; composition per manufacturer: NaCl, KCl, MgSO4.7H2O, KH2PO4, 1.77 mM CaCl2.2H2O, D(+)-glucose anhydrous, sodium pyruvate, sodium lactate, EDTA, alanyl-glutamine, essential and non-essential amino acids, 25.71 mM NaHCO3, 15 mM HEPES, 5 g/l human serum albumin, 10 mg/l gentamicin, and phenol red), and incubated for at least 2 h at 37°C, 5% CO2.
For compound testing, sperm suspensions with 7.5 × 10^6 sperm/ml in SpermActive were treated with either DMSO (vehicle) or 10 µM test compound. For basal and induced hyperactivation conditions, DMSO or progesterone (3 µM), respectively, was added. Samples were incubated for 30 min at 37°C, 5% CO2, before motility analysis.
Motility was analyzed using a CASA system (CEROSII^TM Animal Motility, software version 1.16; Hamilton Thorne, Beverly, MA, USA), mounted on an Axiolab 5 microscope (Zeiss, Germany), equipped with a TPi-SX Thermal Plate (Tokai Hit; Shizuoka-ken, Japan) and a JAI CM-040-GE CCD camera (JAI; Tokyo, Japan). Leja slides (20 µm chamber depth; Leja Products B.V., Nieuw-Vennep, The Netherlands) were pre-warmed to 37°C, cleaned with lens paper, and loaded by capillary action with 6 µl sperm suspension; capillary correction was set to 1.3. Sperm tracks were recorded at 37°C using a 10× negative-phase objective, acquiring 60 frames at 60 Hz with 4 ms exposure and gain set to 600. For each sample and condition, 300–500 motile sperm from at least 10 non-overlapping fields were analyzed. Hyperactive sperm were identified using the SORT function with the following Boolean argument: VCL > 150 µm/s and LIN < 50% and ALH > 7 µm. For each sample and condition, the percentage of hyperactive sperm was normalized to the percentage of motile sperm, and the mean of two technical duplicates was reported.
Statistical analysis was performed using GraphPad Prism 10 for Windows (version 10.6.1). Data normality was assessed using Shapiro–Wilk test. Differences between basal and induced hyperactivation were evaluated using a paired t-test, with effective pairing confirmed across all comparisons. P < 0.05 was considered statistically significant.

ABHD2^FL = target: T5, ABHD2^FL (Homo sapiens, UniProt P08910); assay: Differential scanning fluorimetry (DSF) with purified ABHD2^FL; type: binding; details: 20 µM
T5 construct: TEV site-eGFP-8xHis (C, cleaved yes); made in house; host or cells: SF9 insect cells (baculovirus)
T5 sequence (P08910 1-425): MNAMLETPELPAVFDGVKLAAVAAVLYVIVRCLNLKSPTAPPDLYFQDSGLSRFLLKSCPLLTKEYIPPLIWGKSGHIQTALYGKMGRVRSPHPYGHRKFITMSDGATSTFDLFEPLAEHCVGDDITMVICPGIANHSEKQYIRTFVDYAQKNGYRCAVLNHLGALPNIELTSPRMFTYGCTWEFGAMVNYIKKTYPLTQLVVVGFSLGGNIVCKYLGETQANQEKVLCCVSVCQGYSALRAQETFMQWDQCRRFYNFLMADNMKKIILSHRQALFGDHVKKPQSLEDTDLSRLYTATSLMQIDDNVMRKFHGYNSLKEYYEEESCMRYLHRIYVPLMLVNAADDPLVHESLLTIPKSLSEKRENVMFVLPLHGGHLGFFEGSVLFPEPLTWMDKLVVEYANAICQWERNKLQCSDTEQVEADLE

[5] = target: the molecule itself; assay: SEC; HiLoad 16/600 Superdex 75 pg, final purification step after nickel affinity; pure fractions concentrated in 20 mM HEPES pH 8, 500 mM NaCl, 10% (v/v) glycerol, 1 mM TCEP

O=C(N1CCCCC1)N1CCCCC1c1ccccc1 (stereo not drawn) [Compound 2]
IC50 (ABHD2^L33–E425 [1]; 10 nM enzyme, 10 µM 7-HCA, read-out: IC50 for ABHD2^L33-425, fluorometric assay using 7-HCA): 320 nM
inhibition of ABHD11 (human ABHD11): no detectable inhibition
IC50 ([2]; Supplementary Table S2, read-out: IC50 measured in ABHD2^FL in the 7-HCA Assay): 490 nM
inhibition of ABHD10 (human ABHD10): no detectable inhibition
effect on melting temperature / thermal stability of ABHD2^L33-E425 (DSF), in words (ABHD2^L33–E425 [3]; 10 µM compound, 30 min pre-incubation): increased melting temperature
ΔTm shift for ABHD2^L33-425 determined by DSF (ABHD2^L33–E425 [3]; purified protein): 13 °C

CCCCCCCCCCC[C@@H](C[C@@H]1OC(=O)[C@H]1CCCCCC)OC(=O)[C@H](CC(C)C)NC=O [Orlistat]
IC50 ([4]; 15 µM RB): 305 nM
IC50 ([2]; 5 µM 7-HCA, read-out: IC50, ABHD2^FL, 7-HCA assay): 969 nM

CCCC(=O)Oc1ccc2nc3ccc(=O)cc-3oc2c1 [RB, resorufin butyrate]
Km ([4]; 25 nM ABHD2^FL, read-out: Km of substrate hydrolysis by ABHD2^FL): 23 µM

CC(=O)[C@H]1CC[C@H]2[C@@H]3CCC4=CC(=O)CC[C@]4(C)[C@H]3CC[C@]12C [progesterone]
fraction of hyperactivated sperm upon stimulation (human sperm): increased
effect on heat-induced denaturation of ABHD2^FL (DSF binding) (ABHD2^FL): did not affect
effect on enzymatic activity of purified ABHD2^L33–E425 (ABHD2^L33–E425 [1]; 5 µM steroid or triterpenoid, 300 nM 7-HCA): did not alter
effect on enzymatic activity of purified ABHD2^FL ([2]; 7-HCA and RB substrates (Suppl. Fig. S4A,B), weak effects at ≥5 µM): did not alter
effect on heat-induced denaturation of ABHD2^L33–E425 (DSF binding) (ABHD2^L33–E425 [3]; 40 µM steroid, 30 min pre-incubation): did not affect

B1: Truncated ABHD2 (ABHD2^L33–E425) (domain or fragment, human, UniProt P08910 33-425, looked up)
chain: LNLKSPTAPPDLYFQDSGLSRFLLKSCPLLTKEYIPPLIWGKSGHIQTALYGKMGRVRSPHPYGHRKFITMSDGATSTFDLFEPLAEHCVGDDITMVICPGIANHSEKQYIRTFVDYAQKNGYRCAVLNHLGALPNIELTSPRMFTYGCTWEFGAMVNYIKKTYPLTQLVVVGFSLGGNIVCKYLGETQANQEKVLCCVSVCQGYSALRAQETFMQWDQCRRFYNFLMADNMKKIILSHRQALFGDHVKKPQSLEDTDLSRLYTATSLMQIDDNVMRKFHGYNSLKEYYEEESCMRYLHRIYVPLMLVNAADDPLVHESLLTIPKSLSEKRENVMFVLPLHGGHLGFFEGSVLFPEPLTWMDKLVVEYANAICQWERNKLQCSDTEQVEADLE
notes: human ABHD2 (alpha/beta hydrolase domain-containing protein 2), Uniprot ID P08910, amino acids L33-E425; the predicted transmembrane domain (amino acids 1-32) is removed; No tag cleavage is described; Further construct details may be in the Supplementary Materials and Methods; also called ABHD2^L33-425; ABHD2 amino acids L33–E425; source: E. coli BL21(DE3)-R3-pRARE2, purified (nickel-sepharose, …)
stoichiometry N [5]: 4
